Data reported in ChEMBL document CHEMBL1133837, “Discovery of selective hydroxamic acid inhibitors of tumor necrosis factor-alpha converting enzyme” (Bioorg Med Chem Lett, 2001).

Tests used:
Interstitial collagenase = molecular target: T1, Interstitial collagenase (Homo sapiens, UniProt P03956)
T1 sequence (P03956 whole entry): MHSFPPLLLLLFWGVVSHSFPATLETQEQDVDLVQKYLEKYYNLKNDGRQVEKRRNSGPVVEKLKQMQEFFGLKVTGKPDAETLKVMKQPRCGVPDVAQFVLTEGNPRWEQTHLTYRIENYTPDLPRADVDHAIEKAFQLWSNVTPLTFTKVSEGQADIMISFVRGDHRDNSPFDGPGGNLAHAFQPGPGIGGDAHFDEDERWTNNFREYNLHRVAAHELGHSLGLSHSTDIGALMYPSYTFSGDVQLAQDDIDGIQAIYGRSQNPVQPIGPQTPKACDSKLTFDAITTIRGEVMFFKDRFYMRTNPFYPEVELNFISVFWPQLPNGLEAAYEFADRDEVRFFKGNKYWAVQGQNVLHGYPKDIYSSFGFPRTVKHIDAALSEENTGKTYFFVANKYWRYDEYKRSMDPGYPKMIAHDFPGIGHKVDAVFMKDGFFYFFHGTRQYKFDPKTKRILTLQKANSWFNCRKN

[1] = molecular target: 72 kDa type IV collagenase (Homo sapiens, UniProt P08253)
[2] = molecular target: T2, Disintegrin and metalloproteinase domain-containing protein 17 (Homo sapiens, UniProt P78536)
[3] = molecular target: T2, Disintegrin and metalloproteinase domain-containing protein 17; format: functional, cell-based, THP-1

T2 sequence (P78536 whole entry, the tested form may be a part): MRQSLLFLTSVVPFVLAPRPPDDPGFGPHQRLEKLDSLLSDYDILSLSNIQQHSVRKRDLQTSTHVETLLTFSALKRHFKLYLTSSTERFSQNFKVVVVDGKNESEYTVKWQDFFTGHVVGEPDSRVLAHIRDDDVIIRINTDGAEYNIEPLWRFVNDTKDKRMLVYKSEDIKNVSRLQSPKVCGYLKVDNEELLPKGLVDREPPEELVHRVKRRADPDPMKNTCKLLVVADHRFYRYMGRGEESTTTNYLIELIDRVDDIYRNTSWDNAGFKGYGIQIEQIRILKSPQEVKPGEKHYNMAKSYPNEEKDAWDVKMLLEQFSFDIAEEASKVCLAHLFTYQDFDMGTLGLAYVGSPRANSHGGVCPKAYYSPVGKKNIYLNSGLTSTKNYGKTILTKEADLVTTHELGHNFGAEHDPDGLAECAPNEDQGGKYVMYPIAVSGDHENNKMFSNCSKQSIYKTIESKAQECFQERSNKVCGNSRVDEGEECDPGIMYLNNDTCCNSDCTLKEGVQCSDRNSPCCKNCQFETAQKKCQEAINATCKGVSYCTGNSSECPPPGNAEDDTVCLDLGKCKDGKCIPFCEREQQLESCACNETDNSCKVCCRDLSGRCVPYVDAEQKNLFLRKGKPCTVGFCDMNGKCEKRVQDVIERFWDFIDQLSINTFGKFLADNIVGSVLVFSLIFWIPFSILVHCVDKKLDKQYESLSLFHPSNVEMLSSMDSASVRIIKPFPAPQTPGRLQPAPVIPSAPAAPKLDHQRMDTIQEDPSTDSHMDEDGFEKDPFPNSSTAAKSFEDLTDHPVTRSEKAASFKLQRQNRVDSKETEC
Chain of 72 kDa type IV collagenase (P08253 whole entry, the tested form may be a part): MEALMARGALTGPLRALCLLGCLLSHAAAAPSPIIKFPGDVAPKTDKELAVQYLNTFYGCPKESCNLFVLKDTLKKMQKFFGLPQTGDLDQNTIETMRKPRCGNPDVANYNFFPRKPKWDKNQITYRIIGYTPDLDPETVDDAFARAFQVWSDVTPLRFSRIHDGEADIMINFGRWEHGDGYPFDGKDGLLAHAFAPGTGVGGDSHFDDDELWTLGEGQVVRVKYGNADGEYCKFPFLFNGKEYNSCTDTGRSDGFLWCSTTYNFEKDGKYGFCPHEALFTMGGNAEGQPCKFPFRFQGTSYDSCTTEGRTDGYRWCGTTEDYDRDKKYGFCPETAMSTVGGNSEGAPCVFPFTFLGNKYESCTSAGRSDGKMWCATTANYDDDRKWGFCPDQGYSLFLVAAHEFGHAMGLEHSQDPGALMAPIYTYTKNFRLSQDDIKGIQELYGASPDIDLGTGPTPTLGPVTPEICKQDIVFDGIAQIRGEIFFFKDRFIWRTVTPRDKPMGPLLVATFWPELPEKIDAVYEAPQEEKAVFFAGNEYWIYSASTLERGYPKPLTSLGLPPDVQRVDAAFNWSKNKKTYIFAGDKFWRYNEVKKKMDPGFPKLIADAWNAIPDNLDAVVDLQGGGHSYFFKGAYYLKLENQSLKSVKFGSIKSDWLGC

SMILES | IC50 (Interstitial collagenase) [µM] | IC50 [1] [nM] | IC50 [2] [nM] | IC50 [3] [µM]
COc1cc(CCC[C@H]2C(=O)N[C@H](C(=O)c3ccccc3)Cc3ccc(cc3)OCCCC[C@@H]2C(=O)NO)cc(OC)c1 | > 10 | – | – | –
COc1cc(Oc2ccc(S(=O)(=O)CC(C)C(=O)NO)cc2)cc(OC)c1OC (stereo not drawn) | > 10 | 430 | – | –
COc1cc(Oc2ccc(SCC(C)C(=O)NO)cc2)cc(OC)c1OC (stereo not drawn) | > 10 | 3400 | 180 | –
CNC(=O)[C@@H]1Cc2ccc(cc2)OCCCC[C@H](C(=O)NO)[C@@H](CCCc2cc(C(F)(F)F)cc(C(F)(F)F)c2)C(=O)N1 | > 10 | – | 33 | 0.3
COc1cc(CCC[C@H]2C(=O)N[C@H](C(=O)c3ccccc3)Cc3ccc(cc3)OCCCC[C@@H]2C(=O)NO)cc(OC)c1OC | > 10 | – | – | –
CNC(=O)[C@@H]1Cc2ccc(cc2)OCCCC[C@H](C(=O)NO)[C@@H](CCCc2cc(C)cc(C(C)C)c2)C(=O)N1 | > 1 | – | – | –
COCCOc1cc(CCC[C@H]2C(=O)N[C@H](C(=O)c3ccccc3)Cc3ccc(cc3)OCCCC[C@@H]2C(=O)NO)cc(OC)c1 | > 10 | – | 74 | 15
CC1(C)SCCN(S(=O)(=O)c2ccc(Oc3cccnc3)cc2)[C@H]1C(=O)NO | 0.0057 | – | – | –
CNC(=O)[C@@H]1Cc2ccc(cc2)OCCCC[C@H](C(=O)NO)[C@@H](CCCc2cc(OC)ccc2OC)C(=O)N1 | – | – | 6.8 | 4.1
CNC(=O)[C@@H]1Cc2ccc(cc2)OCCCC[C@H](C(=O)NO)[C@@H](CCCc2ccc(Cl)cc2)C(=O)N1 | – | – | 3.4 | 0.44
O=C(c1ccccc1)[C@@H]1Cc2ccc(cc2)OCCCC[C@H](C(=O)NO)[C@@H](CCCc2cc(Br)cc(Br)c2)C(=O)N1 | – | – | 87 | > 5
COc1cc(Oc2ccc(S(=O)(=O)N3CCSC(C)(C)[C@@H]3C(=O)NO)cc2)cc(OC)c1OC | 0.026 | 21 | – | –
